The values below come from patent US20160015725A1, “METHODS OF CONTROLLING TUMOR BIOENERGETICS NETWORKS” (THE WISTAR INSTITUTE OF ANATOMY AND BIOLOGY, priority 2012, published 2016).

Broadly, the IC50 is the concentration needed to halve the response being measured. Higher therefore signals a need for much substance.

The structures appear in SMILES notation.

Assay [1] relates to TRAMP (Transgenic Adenocarcinoma of the Mouse Prostate) mice. Particulars: cited from earlier work.
The subject of the next assay is tumor cells. In words: Mitochondrial permeability transition. The class given is cell-based, human. The settings on record: non-cytotoxic concentrations. The protocol: (a) FIG. 18a is a bar graph showing percent viability of aliquots of the human tumor cell lines PC3, LNCaP, LN229, A549, or MCF-7 incubated with the indicated increasing concentrations of Gamitrinib for 5 hr and analyzed for changes in cell viability by direct cell counting. Mean±SD (n=2). (b) FIG. 18b are two parameter histogram dot plots of human glioblastoma LN229 cells left untreated (None) or incubated with 5 μM 17-AAG or Gamitrinib (Gam) for 5 hr and analyzed for changes in mitochondrial membrane potential by JC-1 staining and multiparametric flow cytometry. The mitochondrial uncoupler carbonyl cyanide 3-chlorophenylhydrazone (CCCP) was used as a control. The percentage of cells in each quadrant is indicated. FL1, green fluorescence; FL2, red fluorescence.

For a further assay, the system named is TRAMP mice prostate. In words: Immunohistochemistry of TRAMP prostate tissues. The settings on record: PIN lesions. The format is in vivo, mouse. The procedure: The preclinical studies to test the efficacy and safety of Gamitrinib in a genetic mouse model of prostate cancer in immunocompetent TRAMP (Transgenic Adenocarcinoma of the Mouse Prostate) mice have been described (Kang et al., 2011). In this model, Gamitrinib was given systemically (5 mg/kg i.p. with the schedule 3 d on/2 d off) to TRAMP mice starting at 21.9 weeks of age (group 1) or 14.7 weeks of age (group 2), for 3 weeks or 5 weeks, respectively. In the control group, TRAMP mice of 24 weeks of age received vehicle. At the end of the experiment, animals in the vehicle or Gamitrinib groups were sacrificed and analyzed for localized and metastatic prostate cancer of adenocarcinoma or neuroendocrine histologic type (Kang et al., 2011).
For analysis of patient-derived or TRAMP tissues, slides were microwaved for 35 min in EDTA solution. Sections (4-μm thick) were cut from all TMA blocks and TRAMP-derived prostatic tumors and stained with a rabbit polyclonal antibody to Grp78 (1:1000) for 30 min at 22° C. IHC was performed using a Ventana BenchMark Ultra autostainer (Ventana Medical Systems), with the ultraView Universal DAB Detection Kit (Ventana) for detection of antibody reactivity. All slides were counterstained with hematoxylin Immunoreactivity for Grp78 was evaluated by two pathologists (S.F. and S.B.) and independently scored for cytoplasmic localization. When discrepancies in scoring occurred, a consensus interpretation was reached after re-examination. The percentage of immunoreactive epithelial cells was determined and assigned to one of the following four categories: 0, (0%); 1, (1%-9%); 2, (10%-49%) and 3, (50%-100%). The intensity of immunostaining was scored as absent (0), mild (1), moderate (2) or strong (3). In the case of TMA, the two parameters were multiplied to generate a weighted score for each case that ranged from 0 to 9. Cases with weighted score 0 were defined as negative. Among AdCa samples in the series under investigation, 17 cases were negative for Grp78 expression, whereas 0 cases of SCC were Grp78-negative. […]

Assay [2] deals with LN229 cells. In words: ROS production, H2-DCFA labeling. The settings on record: cytotoxic or non-cytotoxic concentrations, various time intervals. The class given is cell-based, human.
Assay [3] deals with LN229 cells. In words: Oxygen consumption, fluorimetric assay. The class given is cell-based, human. The settings on record: tumor cells. The protocol:
Treated tumor cells were analyzed using a fluorescence oxygen sensitive probe-based oxygen measuring kit (Luxcel Bioscience). For these experiments, LN229 cells were plated at increasing cell density (10-60×10^4/ml) on black body, clear bottom 96-well plates. The culture medium was replaced with 150 μl of phenol free DMEM containing 10% fetal bovine serum in the presence of 17-AAG or Gamitrinib (10 μM). Cells were further incubated with an oxygen-sensing probe (10 pmol/well), and 100 μl of heavy mineral oil was added to each well to seal the samples from ambient oxygen. After a 2 h incubation at 37° C., oxygen consumption was determined by quantifying the probe fluorescence signal in each well using a plate reader (Beckman Coulter) with excitation and emission wavelengths at 370 nm and 625 nm, respectively.

The test system of assay [4] is BRAF V600E melanoma cells. In words: Melanoma cell viability by MTT, BRAF V600E. The format is cell-based, human. The protocol: Various cell types were seeded in triplicate onto 96-well plates at 4×10^3 cells/well, treated with vehicle, Gamitrinib or 17-AAG (0-20 μM) for 12 h, and analyzed for changes in metabolic activity by an MTT assay. For determination of apoptosis, LN229 cells ([…]) were labeled for annexin V and propidium iodide (PI) (BD Biosciences), and analyzed by multiparametric flow cytometry (BD).

In the case of `CO[C@H]1/C=C\C=C(/C)C(=O)NC2=CC(=O)C(NCCCCCC[P+](c3ccccc3)(c3ccccc3)c3ccccc3)=C(C[C@@H](C)C[C@H](OC)[C@H](O)[C@@H](C)/C=C(\C)[C@@H]1OC(N)=O)C2=O` [Gamitrinib], the “residual prostatic adenocarcinoma at end of experiment” value in assay [1] (5 mg/kg i.p., 3 d on/2 d off) is on record as “only one animal displayed a small residual area of prostatic adenocarcinoma”. For the same compound, in assay [1] (systemic treatment), the “Prostatic Intraepithelial Neoplasia (PIN)” value is “did not affect Prostatic Intraepithelial Neoplasia (PIN)”; the “primary and metastatic prostate cancer growth” value was “inhibited primary and metastatic prostate cancer growth”. In the assay on tumor cells, the mitochondrial permeability transition result is listed as “do not trigger mitochondrial permeability transition”. Besides, in the assay on TRAMP mice prostate, the GRP78 expression result is reported as “upregulation of GRP78”; the “autophagy, LC3 conversion” value is reported as “induction of autophagy, i.e. LC3 conversion”; the “phosphorylated AMPK expression” value is on record as “increased expression of phosphorylated AMPK”. Also, the “production of reactive oxygen species (ROS)” value with LN229 cells [2] is recorded as “had no effect on production of reactive oxygen species (ROS)”. Also, the oxygen consumption result with LN229 cells [3] was “reduced”. Also, the IC50 in assay [4] came out at 1.95 ± 0.21 µM.
